# Reference: ChEMBL document CHEMBL1150249, “Antiglioma action of xanthones from Gentiana kochiana: Mechanistic and structure-activity requirements” (Bioorg Med Chem, 2008)
# pIC50: −log10 of the molar value. Active and inactive are the calls of the source. The rule behind the calls is not given here.
# Legend:
# U-251 [1] = assay: Antiproliferative activity against human U251 cells assessed as cell number after 48 hrs by crystal violet assay; assay type: functional, cell-based; details: U-251, 48 h
# C6 [2] = assay: Antiproliferative activity against rat C6 cells assessed as cell number after 48 hrs by crystal violet assay; assay type: functional, cell-based; details: C6, 48 h
# [3] = Inhibition of bovine brain tubulin by microtubule depolymerization assay; design: species or system Bos taurus
# C6 [4] = assay: Antiproliferative activity against rat C6 cells assessed as mitochondrial dehydrogenase activity after 72 hrs by MTT assay; assay type: functional, cell-based
# U-251 [5] = assay: Antiproliferative activity against human U251 cells assessed as cell number after 24 hrs by crystal violet assay; assay type: functional, cell-based
# C6 [6] = assay: Antiproliferative activity against rat C6 cells assessed as cell number after 24 hrs by crystal violet assay; assay type: functional, cell-based
# C6 [7] = assay: Induction of apoptosis in rat C6 cells assessed as change in morphology at 50 uM after 48 hrs by bright field microscopy; assay type: functional, cell-based
# C6 [8] = assay: Cell cycle arrest in rat C6 cells assessed as accumulation at G2/M phase at 50 uM after 24 hrs by flow cytometry relative to control; assay type: functional
# C6 [9] = assay: Cell cycle arrest in rat C6 cells assessed as accumulation at S phase at 50 uM after 24 hrs by flow cytometry relative to control; assay type: functional
# [10] = Antiproliferative activity against Albino Oxford rat primary astrocytes assessed as cell number after 48 hrs by crystal violet assay; assay type: cell-based; details: astrocyte
# C6 [11] = assay: Induction apoptosis in rat C6 cells at 50 uM after 36 hrs by flow cytometry relative to control; assay type: functional
# C6 [12] = assay: Induction of mitochondrial membrane potential depolarization in rat C6 cells assessed as increase in green to red fluorescence ratio at 50 uM after 24 hrs by flow cytometry; assay type: functional, cell-based
# [13] = Antiproliferative activity against Albino Oxford rat peritoneal macrophages assessed as cell number after 48 hrs by crystal violet assay; assay type: cell-based; details: macrophage
# [14] = Antiproliferative activity against Albino Oxford rat peritoneal macrophages assessed as mitochondrial respiration after 48 hrs by MTT assay; assay type: cell-based; details: macrophage
# U-251 [15] = assay: Antiproliferative activity against human U251 cells assessed as cell number after 72 hrs by crystal violet assay; assay type: functional, cell-based
# [16] = Antiproliferative activity against Albino Oxford rat primary astrocytes assessed as change in morphology by bright field microscopy; assay type: cell-based; details: astrocyte
# C6 [17] = assay: Cell cycle arrest in rat C6 cells assessed as accumulation at G0/G1 phase at 50 uM after 24 hrs by flow cytometry relative to control; assay type: functional
# U-251 [18] = assay: Antiproliferative activity against human U251 cells assessed as mitochondrial dehydrogenase activity after 24 hrs by MTT assay; assay type: functional, cell-based
# C6 [19] = assay: Antiproliferative activity against rat C6 cells assessed as mitochondrial dehydrogenase activity after 24 hrs by MTT assay; assay type: functional, cell-based
# C6 [20] = assay: Induction of reactive oxygen species production in rat C6 cells at 50 uM after 36 hrs by flow cytometry; assay type: functional, cell-based
# C6 [21] = assay: Induction apoptosis in rat C6 cells assessed as caspase activation at 50 uM after 36 hrs by flow cytometry relative to control; assay type: functional
# C6 [22] = assay: Antiproliferative activity against rat C6 cells assessed as cell number after 72 hrs by crystal violet assay; assay type: functional, cell-based
# U-251 [23] = assay: Antiproliferative activity against human U251 cells assessed as mitochondrial dehydrogenase activity after 72 hrs by MTT assay; assay type: functional, cell-based
# [24] = Antiproliferative activity against Albino Oxford rat primary astrocytes assessed as mitochondrial respiration after 48 hrs by MTT assay; assay type: cell-based; details: astrocyte
# C6 [25] = assay: Induction necrosis in rat C6 cells at 50 uM after 36 hrs by flow cytometry relative to control; assay type: functional
# C6 [26] = assay: Antiproliferative activity against rat C6 cells assessed as cell number after 48 hrs by crystal violet assay in presence of N-acetyl-cysteine; assay type: functional, cell-based
# C6 [27] = assay: Antiproliferative activity against rat C6 cells assessed as caspase activation at 50 uM after 36 hrs by flow cytometry in presence of N-acetyl-cysteine; assay type: functional, cell-based
smiles,measurement,setting,value
COc1cc(O[C@@H]2O[C@H](CO)[C@@H](O)[C@H](O)[C@H]2O)c2c(=O)c3c(OC)c(O)ccc3oc2c1,pIC50,U-251 [1],< 4.00
same,pIC50,C6 [2],< 4.00
COc1cc(O)c2c(=O)c3c(O)ccc(O)c3oc2c1 [BELLIDIFOLIN],pIC50,U-251 [1],< 4.00
same,pIC50,[3],< 4.30
same,pIC50,C6 [2],< 4.00
COc1cc(O)c2c(=O)c3c(OC)c(OC)ccc3oc2c1 [DECUSSATIN],pIC50,U-251 [1],< 4.00
same,pIC50,C6 [2],< 4.00
O=c1c2c(O)cc(O)cc2oc2c(O)ccc(O)c12 [DEMETHYLBELLIDIFOLIN],pIC50,U-251 [1],< 4.00
same,pIC50,[3],< 4.30
same,pIC50,C6 [2],< 4.00
COc1cc(O[C@@H]2O[C@H](CO[C@@H]3OC[C@@H](O)[C@H](O)[C@H]3O)[C@@H](O)[C@H](O)[C@H]2O)c2c(=O)c3c(OC)c(O)ccc3oc2c1 [GENTIABAVAROSIDE],pIC50,U-251 [1],< 4.00
same,pIC50,C6 [2],< 4.00
COc1cc(O)c2c(=O)c3c(O)c(O)ccc3oc2c1 [GENTIAKOCHIANIN],Activity,C6 [4],Active
same,Activity,U-251 [5],Active
same,Activity,C6 [6],Active
same,pIC50,U-251 [1],4.56
same,Activity,C6 [7],Active
same,Activity,C6 [8],52.5%
same,Activity,C6 [9],10.6%
same,pIC50,[3],4.74
same,Activity,[10],Non-toxic
same,Activity,C6 [11],24.2%
same,Activity,C6 [12],Active
same,Activity,[13],Non-toxic
same,pIC50,C6 [2],4.50
same,Activity,[14],Non-toxic
same,Activity,U-251 [15],Active
same,Activity,[16],Non-toxic
same,Activity,C6 [17],33.7%
same,Activity,U-251 [18],Active
same,Activity,C6 [19],Active
same,Activity,C6 [20],Active
same,Activity,C6 [21],19.7%
same,Activity,C6 [22],Active
same,Activity,U-251 [23],Active
same,Activity,[24],Non-toxic
same,Activity,C6 [25],5.9%
COc1cc(O)c2c(=O)c3c(OC)c(O)ccc3oc2c1 [GETIACAULEIN],Activity,C6 [4],Active
same,Activity,U-251 [5],Active
same,Activity,C6 [6],Active
same,pIC50,U-251 [1],4.27
same,Activity,C6 [8],18.8%
same,Activity,C6 [9],5.8%
same,pIC50,[3],< 4.30
same,Activity,[10],Non-toxic
same,Activity,C6 [11],4.5%
same,Activity,C6 [12],Active
same,Activity,[13],Non-toxic
same,pIC50,C6 [2],4.25
same,Activity,[14],Non-toxic
same,Activity,U-251 [15],Active
same,Activity,[16],Non-toxic
same,Activity,C6 [26],Active
same,Activity,C6 [17],73.2%
same,Activity,U-251 [18],Active
same,Activity,C6 [19],Active
same,Activity,C6 [20],Active
same,Activity,C6 [27],Active
same,Activity,C6 [21],6%
same,Activity,C6 [22],Active
same,Activity,U-251 [23],Active
same,Activity,[24],Non-toxic
same,Activity,C6 [25],5.5%
COc1cc(O[C@@H]2O[C@H](CO[C@@H]3OC[C@@H](O)[C@H](O)[C@H]3O)[C@@H](O)[C@H](O)[C@H]2O)c2c(=O)c3c(O)c(O)ccc3oc2c1 [ISOGENTIAKOCHIANOSIDE],pIC50,U-251 [1],< 4.00
same,pIC50,C6 [2],< 4.00
CC(=O)O[C@H]1C(=O)[C@@]2(C)[C@H]([C@H](OC(=O)c3ccccc3)[C@]3(O)C[C@H](OC(=O)[C@H](O)[C@@H](NC(=O)c4ccccc4)c4ccccc4)C(C)=C1C3(C)C)[C@]1(OC(C)=O)CO[C@@H]1C[C@@H]2O [PACLITAXEL],pIC50,[3],5.62
